This is an account of results in publication PMC5385157 (Neuropharmacology, 2016).

Where “and” joins values, the source holds several entries; their conditions need not be identical. Equal entries are not always repeated. Where two headings read alike, the source gives them in different places.

For data set [1], the system named is α2AAR-mediated activation of the ERK1/2 MAP kinase pathway. As to the kind of experiment: Western blot for phospho-ERK1/2 in WT MEF cells. The class given is cell-based, murine. Particulars: 1 µM. (In general: Immunoblotting shows a protein as a band on a membrane.)
For data set [2] the following is noted: clinical blood plasma level; ref Baldessarini and Tarazi (2006); cited from earlier work.
Data set [3] concerns the target T1, HA-α2AAR (Mus musculus, UniProt Q01338).
T1 sequence (Q01338 1-465): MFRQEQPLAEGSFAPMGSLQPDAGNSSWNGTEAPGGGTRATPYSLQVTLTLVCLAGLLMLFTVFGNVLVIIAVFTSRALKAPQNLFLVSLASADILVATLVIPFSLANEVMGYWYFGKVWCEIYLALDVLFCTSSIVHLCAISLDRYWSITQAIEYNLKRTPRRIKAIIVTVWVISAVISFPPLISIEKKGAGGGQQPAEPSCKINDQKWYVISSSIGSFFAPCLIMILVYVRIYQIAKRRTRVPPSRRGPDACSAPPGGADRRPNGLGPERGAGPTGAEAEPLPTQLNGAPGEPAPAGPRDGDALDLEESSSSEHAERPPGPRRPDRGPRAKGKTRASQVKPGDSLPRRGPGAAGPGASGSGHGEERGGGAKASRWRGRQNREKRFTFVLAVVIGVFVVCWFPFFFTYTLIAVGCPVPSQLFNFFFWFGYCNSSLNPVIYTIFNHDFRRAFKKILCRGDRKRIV
To be noted: 1 µM, 30 min.

The target in data set [4] is T1, HA-α2AAR. Particulars: 1 µM.
Data set [5] concerns the target human α2AAR. To be noted: ref NIMH Psychoactive Drug Screening Program (PDSP) Ki Database, cited from earlier work.
Data set [6] concerns the target α2AAR/Arr3 interaction (Mus musculus, UniProt Q01338). Particulars: 1 µM, live HEK 293 cells.
Data set [7] has as its target T2, α2AAR (Mus musculus, UniProt Q01338).
T2 sequence (Q01338 1-465): T1 sequence (Q01338 1-465)
As to the kind of experiment: cAMP assay. The class given is cell-based, murine. To be noted: ligand 10 µM, 10 µM forskolin, 20 min. In general terms: cAMP levels reflect the balance of adenylyl cyclase and phosphodiesterase activity.

α2AAR/Arr3 interaction, sequence (P32121 whole entry partner, one chain of several): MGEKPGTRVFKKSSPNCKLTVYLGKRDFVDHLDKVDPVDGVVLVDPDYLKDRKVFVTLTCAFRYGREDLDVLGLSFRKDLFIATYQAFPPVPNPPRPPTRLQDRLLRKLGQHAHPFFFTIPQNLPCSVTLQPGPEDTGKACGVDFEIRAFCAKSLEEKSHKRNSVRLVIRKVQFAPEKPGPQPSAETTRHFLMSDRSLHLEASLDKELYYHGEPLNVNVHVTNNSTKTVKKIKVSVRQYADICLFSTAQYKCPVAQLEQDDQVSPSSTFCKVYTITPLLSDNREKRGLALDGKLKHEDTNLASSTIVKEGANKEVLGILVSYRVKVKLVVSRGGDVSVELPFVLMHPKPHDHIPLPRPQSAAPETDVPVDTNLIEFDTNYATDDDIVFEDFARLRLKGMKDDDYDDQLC

Regarding `CN1CCN(C2=Nc3cc(Cl)ccc3Nc3ccccc32)CC1` [Clozapine, clozapine], in data set [1], the “ERK1/2 activation (pERK1/2)” value is “unable to detect any ERK1/2 activation”.
On to `OCCN1CCN(CCCN2c3ccccc3Sc3ccc(C(F)(F)F)cc32)CC1` [Fluphenazine, fluphenazine], for which the Therapeutic range in data set [2] was 20–100 ng/ml and 50–230 nM.
Regarding `CN(C)CCCN1c2ccccc2Sc2ccc(Cl)cc21` [Chlorpromazine, chlorpromazine], the Therapeutic range in data set [2] was 90 to 2350 nM. For the same compound, the “α2AAR endocytosis (intracellular punctae)” value in data set [3] is “robust α2AAR endocytosis”. Besides, the “receptor loss from the cell surface” value in data set [4] (WT MEF cells) is around 30%. Besides, the “α2AAR endocytic response in arrestin-null (Arr2,3−/−) MEF cells” value in data set [4] (5, 10, 30 min) was “lost”. Further, the Ki is 251 nM in data set [5] (read-out: Reported values at human α2AAR, Avg.) and 78 to 558 nM in data set [5] (read-out: Reported values at human α2AAR, Range). The “α2AAR/Arr3 interaction (FLIM-FRET efficiency)” value in data set [6] was “robust α2AAR/Arr3 interaction”.
Consider `NC[C@H](O)c1ccc(O)c(O)c1` [NE, norepinephrine], for which the “Gαi-mediated inhibition of cAMP production” value in data set [7] was around 50%.
